Measured values taken from DBAASP.
In brackets after ≈: the same amount, converted by molar mass. Several values for one entry are separate records, joined by “and”; a condition that tells them apart may be missing. Equal values may be shown once.

Legend:
Experiment in all cases: ≥ marks a high value that may be exact or a test limit, other limits are often not marked, values filed in µg/mL are converted to µM
[1] = tested on: Escherichia coli ATCC 11775
[2] = tested on: Escherichia coli ATCC 25922
Escherichia coli SBS 363 = tested on: Escherichia coli SBS 363
Micrococcus luteus A270 = tested on: Micrococcus luteus A270
[3] = tested on: Micrococcus luteus ATCC 49732
[4] = tested on: Pseudomonas aeruginosa ATCC 14502
Pseudomonas aeruginosa = tested on: Pseudomonas aeruginosa
[5] = tested on: Staphylococcus aureus ATCC 12600
[6] = tested on: Staphylococcus aureus ATCC 43300
[7] = tested on: Staphylococcus aureus ATCC 6538
[8] = tested on: Aeromonas salmonicida 97-4
[9] = tested on: Aeromonas salmonicida 99-1
Candida albicans C627 = tested on: Candida albicans C627
[10] = tested on: Candida albicans CCARM 14001
[11] = tested on: Candida albicans KCTC 7270
[12] = tested on: Escherichia coli CCARM 1229
[13] = tested on: Escherichia coli CCARM 1238
[14] = tested on: Escherichia coli CGSC 4908
Escherichia coli DC2 = tested on: Escherichia coli DC2
[15] = tested on: Escherichia coli KCTC 1682
Escherichia coli UB1005 = tested on: Escherichia coli UB1005
[16] = tested on: Pseudomonas aeruginosa K799
[17] = tested on: Pseudomonas aeruginosa KCTC 1637
[18] = tested on: Pseudomonas aeruginosa Z61
[19] = tested on: Salmonella enterica serovar typhimurium MS7953s
[20] = tested on: Salmonella enterica subsp. enterica serovar Typhimurium ATCC 14028s
[21] = tested on: Salmonella typhimurium CCARM 8007
[22] = tested on: Salmonella typhimurium CCARM 8009
[23] = tested on: Salmonella typhimurium CCARM 8013
[24] = tested on: Salmonella typhimurium KCTC 1926
[25] = tested on: Staphylococcus aureus C623
[26] = tested on: Staphylococcus aureus CCARM 3089
[27] = tested on: Staphylococcus aureus CCARM 3090
[28] = tested on: Staphylococcus aureus CCARM 3108
[29] = tested on: Staphylococcus aureus CCARM 3114
[30] = tested on: Staphylococcus aureus CCARM 3126
[31] = tested on: Staphylococcus aureus KCTC 1621
Staphylococcus aureus = tested on: Staphylococcus aureus
[32] = tested on: Staphylococcus epidermidis C621
[33] = tested on: Trichosporon beigelii KCTC 7707
Bacillus subtilis C971 = tested on: Bacillus subtilis C971
[34] = tested on: Corynebacterium xerosis C875
[35] = tested on: Enterococcus faecalis C625
[36] = tested on: Pseudomonas aeruginosa H187
[37] = tested on: Pseudomonas aeruginosa H188
[38] = tested on: Salmonella typhimurium C587
[39] = tested on: Salmonella typhimurium C610
[40] = tested on: Staphylococcus aureus ATCC 25923
[41] = tested on: Staphylococcus aureus SAP 0017
Bacillus subtilis = tested on: Bacillus subtilis
[42] = tested on: Candida albicans ATCC 2002
[43] = tested on: Helicobacter pylori NCTC 11637
Shigella dysenteriae = tested on: Shigella dysenteriae
[44] = tested on: Staphylococcus aureus ATCC 2592

Question: How did the MIC [1] turn out when CC[C@H](C)[C@H](NC(=O)[C@H](C)NC(=O)[C@H](C)NC(=O)[C@H](CCC(=O)O)NC(=O)[C@H](CCCCN)NC(=O)CNC(=O)[C@@H](NC(=O)[C@H](CC(N)=O)NC(=O)[C@H](CCCCN)NC(=O)[C@@H](NC(=O)[C@@H](NC(=O)[C@H](CO)NC(=O)[C@H](Cc1c[nH]c2ccccc12)NC(=O)[C@H](CC(C)C)NC(=O)CN)[C@@H](C)O)[C@@H](C)CC)C(C)C)C(=O)N[C@@H](C)C(=O)N[C@@H](C)C(=O)NCC(=O)N[C@@H](CCCCN)C(=O)N[C@@H](C)C(=O)N[C@@H](C)C(=O)N[C@@H](CC(C)C)C(=O)NCC(=O)N[C@@H](C)C(=O)N[C@@H](CC(C)C)C(N)=O [GLWSTIKNVGKEAAIAAGKAALGAL] was run?
Answer: 0.8 µM (≈ 1.93 µg/mL)

Question: What about the MIC [2] of the same compound?
Answer: 6.6 µM (≈ 15.9 µg/mL)

Question: What about the MIC (Escherichia coli SBS 363) of the same compound?
Answer: 6 µM (≈ 14.5 µg/mL)

Question: And the MIC (Micrococcus luteus A270)?
Answer: 6 µM (≈ 14.5 µg/mL)

Question: And the MIC [3]?
Answer: 0.8 µM (≈ 1.93 µg/mL)

Question: And the MIC [4]?
Answer: 6 µM (≈ 14.5 µg/mL)

Question: And the MIC (Pseudomonas aeruginosa)?
Answer: 6.6 µM (≈ 15.9 µg/mL)

Question: What about the MIC [5] of the same compound?
Answer: 0.4 µM (≈ 0.964 µg/mL)

Question: And the MIC [6]?
Answer: 26.5 µM (≈ 63.9 µg/mL)

Question: What about the MIC [7] of the same compound?
Answer: 6 µM (≈ 14.5 µg/mL)

Question: How did the MIC [8] turn out when CC[C@H](C)[C@H](NC(=O)[C@H](C)NC(=O)[C@H](C)NC(=O)[C@H](CCC(N)=O)NC(=O)CNC(=O)[C@H](CC(C)C)NC(=O)[C@H](Cc1cnc[nH]1)NC(=O)[C@H](CCCCN)NC(=O)[C@H](C)NC(=O)CNC(=O)[C@H](CCCCN)NC(=O)[C@H](CCCNC(=N)N)NC(=O)[C@H](CC(C)C)NC(=O)[C@H](Cc1c[nH]c2ccccc12)NC(=O)[C@H](CCCCN)NC(=O)[C@H](CCCCN)NC(=O)[C@H](Cc1c[nH]c2ccccc12)NC(=O)CN)C(=O)N[C@@H](CCCCN)C(C)=O [GWKKWLRKGAKHLGQAAIK] was run?
Answer: 0.459 µM (≈ 0.999 µg/mL)

Question: And the MIC [9]?
Answer: 0.919 µM (≈ 2 µg/mL)

Question: And the MIC (Candida albicans C627)?
Answer: 3.68 µM (≈ 7.99 µg/mL)

Question: What about the MIC [10] of the same compound?
Answer: 8 µM (≈ 17.4 µg/mL)

Question: And the MIC [11]?
Answer: 8 µM and 16 µM

Question: And the MIC [12]?
Answer: 8 µM (≈ 17.4 µg/mL)

Question: What about the MIC [13] of the same compound?
Answer: 4 µM (≈ 8.7 µg/mL)

Question: What about the MIC [14] of the same compound?
Answer: 0.459 µM (≈ 0.999 µg/mL)

Question: And the MIC (Escherichia coli DC2)?
Answer: 0.23 µM (≈ 0.5 µg/mL)

Question: What about the MIC [15] of the same compound?
Answer: 2 µM and 4 µM

Question: And the MIC (Escherichia coli UB1005)?
Answer: 0.919 µM (≈ 2 µg/mL)

Question: And the MIC [16]?
Answer: 1.84 µM (≈ 4 µg/mL)

Question: What about the MIC [17] of the same compound?
Answer: 4 µM and 8 µM

Question: And the MIC [18]?
Answer: 0.459 µM (≈ 0.999 µg/mL)

Question: And the MIC (Pseudomonas aeruginosa)?
Answer: 4 µM (≈ 8.7 µg/mL)

Question: What about the MIC [19] of the same compound?
Answer: 0.23 µM (≈ 0.5 µg/mL)

Question: What about the MIC [20] of the same compound?
Answer: 7.35 µM (≈ 16 µg/mL)

Question: What about the MIC [21] of the same compound?
Answer: 4 µM (≈ 8.7 µg/mL)

Question: And the MIC [22]?
Answer: 16 µM (≈ 34.8 µg/mL)

Question: And the MIC [23]?
Answer: 4 µM (≈ 8.7 µg/mL)

Question: And the MIC [24]?
Answer: 1 µM and 2 µM

Question: What about the MIC [25] of the same compound?
Answer: 14.7 µM (≈ 32 µg/mL)

Question: And the MIC [26]?
Answer: 2 µM (≈ 4.35 µg/mL)

Question: What about the MIC [27] of the same compound?
Answer: 8 µM (≈ 17.4 µg/mL)

Question: And the MIC [28]?
Answer: 2 µM (≈ 4.35 µg/mL)

Question: And the MIC [29]?
Answer: 4 µM (≈ 8.7 µg/mL)

Question: And the MIC [30]?
Answer: 4 µM (≈ 8.7 µg/mL)

Question: What about the MIC [31] of the same compound?
Answer: 4 µM and 8 µM

Question: What about the MIC (Staphylococcus aureus) of the same compound?
Answer: 2.83 µM (≈ 6.15 µg/mL)

Question: And the MIC [32]?
Answer: 7.35 µM (≈ 16 µg/mL)

Question: And the MIC [33]?
Answer: 4 µM and 8 µM

Question: With CC[C@H](C)[C@H](NC(=O)[C@H](C)NC(=O)[C@H](CCCCN)NC(=O)[C@H](CC(C)C)NC(=O)[C@H](C)NC(=O)[C@@H](NC(=O)[C@H](Cc1cnc[nH]1)NC(=O)[C@H](CC(C)C)NC(=O)[C@@H](NC(=O)[C@@H](NC(=O)[C@H](CCCCN)NC(=O)[C@@H](NC(=O)[C@H](C)NC(=O)[C@H](CC(C)C)NC(=O)[C@H](CCCCN)NC(=O)[C@H](Cc1ccccc1)NC(=O)[C@@H](NC(=O)[C@H](CCCCN)NC(=O)[C@H](CC(C)C)NC(=O)[C@H](Cc1ccccc1)NC(=O)[C@H](CO)NC(=O)[C@H](CCCCN)NC(=O)[C@H](Cc1c[nH]c2ccccc12)NC(=O)[C@H](CCCCN)NC(C)=O)[C@@H](C)O)C(C)C)[C@@H](C)O)C(C)C)[C@@H](C)O)C(=O)N[C@@H](CO)C(=O)N[C@@H](CO)C(N)=O [KWKSFLKTFKLAVKTVLHTALKAISS] as the compound, how does the MIC (Bacillus subtilis C971) read?
Answer: 1.7 µM (≈ 5.07 µg/mL)

Question: What about the MIC [34] of the same compound?
Answer: 0.848 µM (≈ 2.53 µg/mL)

Question: What about the MIC [35] of the same compound?
Answer: 17.2 µM (≈ 51.5 µg/mL)

Question: What about the MIC (Escherichia coli DC2) of the same compound?
Answer: 1.7 µM (≈ 5.07 µg/mL)

Question: And the MIC (Escherichia coli UB1005)?
Answer: 5.43 µM (≈ 16.2 µg/mL)

Question: And the MIC [36]?
Answer: 6.86 µM (≈ 20.5 µg/mL)

Question: And the MIC [37]?
Answer: 10.9 µM (≈ 32.4 µg/mL)

Question: What about the MIC [38] of the same compound?
Answer: 10.9 µM (≈ 32.4 µg/mL)

Question: What about the MIC [39] of the same compound?
Answer: 4.31 µM (≈ 12.9 µg/mL)

Question: What about the MIC [40] of the same compound?
Answer: 10.9 µM (≈ 32.4 µg/mL)

Question: And the MIC [41]?
Answer: 10.9 µM (≈ 32.4 µg/mL)

Question: What about the MIC [32] of the same compound?
Answer: 5.43 µM (≈ 16.2 µg/mL)

Question: What does the source list for CC[C@H](C)[C@H](NC(=O)[C@H](CCC(N)=O)NC(=O)[C@H](CCCCN)NC(=O)[C@H](Cc1c[nH]c2ccccc12)NC(=O)[C@H](CC(C)C)NC(=O)[C@H](CCC(N)=O)NC(=O)[C@@H]1CCCN1C(=O)[C@H](CC(C)C)NC(=O)[C@H](CCCCN)NC(=O)[C@H](C)NC(=O)[C@H](CCC(=O)O)NC(=O)[C@H](CCCCN)NC(=O)[C@@H](NC(=O)[C@H](CCSC)NC(=O)[C@@H](NC(=O)[C@@H](NC(=O)[C@@H](NC(=O)[C@@H](N)CO)[C@@H](C)CC)[C@@H](C)CC)[C@@H](C)O)[C@@H](C)O)C(=O)N[C@@H](C)C(=O)N[C@H]1CSSC[C@@H](C(=O)O)NC(=O)[C@H]([C@@H](C)O)NC(=O)[C@H](CC(N)=O)NC(=O)[C@H](Cc2ccc(O)cc2)NC(=O)[C@H](CC(C)C)NC(=O)[C@H](CCCN=C(N)N)NC1=O [SIITMTKEAKLPQLWKQIACRLYNTC]?
Answer: MIC (Bacillus subtilis): ≥ 39.3 µM; MIC [42]: 9.82 µM (≈ 30 µg/mL); MIC [2]: 19.6 µM (≈ 60 µg/mL); MIC [43]: 9.82 µM (≈ 30 µg/mL); MIC (Shigella dysenteriae): ≥ 39.3 µM; MIC [44]: 4.91 µM (≈ 15 µg/mL)
